# In PMC10030409 (Investigational New Drugs, 2023):
# Like-named read-outs stand apart in the source and are kept apart here.
# Key:
# clinical [1] = settings: human, in vivo
# Experimental: Patients were asked to determine the time of drug intake. The collected serum and whole peripheral blood samples were stored at − 80 °C until analysis.
# Several candidate PopPK models with different structures were compared based on the goodness-of-fit (GOF) plots and the objective function value (OFV) expressed as minus twice log likelihood (−2LL), and the difference in OFV between the two nested models was statistically evaluated using the chi-square test (the decrease in −2LL >3.84, p < 0.05, was considered statistically significant).
# Stepwise covariate analysis was performed to evaluate the effect of covariates on clearance and volume of distribution. The significance of the effect was assessed by the −2LL value; decrease in −2LL of >3.84 (p < 0.050) for the forward addition was considered significant. The impact of body weight (BW), albumin (ALB), age (AGE), sex, aspartate aminotransferase (AST), and alanine aminotransferase (ALT) levels on CLparent/F, CLm5/F, and CLm7/F was evaluated. In addition, BW, ALB, AGE, and sex were evaluated on Vparent/F, Vm5/F, and Vm7/F. The covariates were modeled as shown in equation (c) in the power form for continuous covariates, equation (d) with log-transformation for continuous covariates with outliers, and equation (e) for categorical covariates: […]
# The candidate PopPK models were evaluated by goodness of fit, ∆−2LL values, η-shrinkage, and relative standard error (RSE%). […] The uncertainty of the parameters was estimated by performing a bootstrap. The original dataset was randomly resampled to generate 1000 samples, and the parameters estimated from the successful runs were compared to those estimated from the original dataset.
# wild-type EGFR = settings: higher potency; cited from earlier work
# [2] = cited from earlier work; for Fraction of metabolite conversion from the parent: fixed in the PopPK model
# [3] = human, in vivo
# Experimental: This prospective, longitudinal observational study was designed and conducted at the Ageo Central General Hospital from February 2019 to July 2020 and Keio University Hospital from June 2020 to April 2022. The primary endpoint was the association of exposures to osimertinib, AZ5104, AZ7550, or germline polymorphisms with AE severity. […] Patients who were mentally or physically incapable of providing informed consent were excluded from the study. […] The study was conducted with adherence to the Declaration of Helsinki.
# [4] = in vivo
# Experimental: Polymorphisms in EGFR, ABCG2, ABCB1, and POR (Online Resource, Appendix A) were analyzed using TaqMan® probe-based assays (Applied Biosystems, Foster City, CA, USA), whereas the ABCG2 polymorphism (rs2231137) was studied using the CycleavePCR® assay (TaKaRa Bio Inc., Kusatsu, Japan). The detailed genotyping method is provided in the Online Resource (Appendix A).
# Germline polymorphism and the worst grade of AE occurring in each patient were analyzed for pharmacogenomics–toxicity relationship analysis.
# The cut-off date for data collection was April 4, 2022. Continuous variables such as AUC0–24 and laboratory data are presented as median (interquartile range, IQR); estimates of PopPK parameters are presented as mean (standard error, SE). […] Receiver operating characteristic (ROC) curve analysis was used to evaluate the discrimination potential of AUC0–24 for grade ≥ 2 AEs. […] All p-values were two-sided, and statistical significance was set at p < 0.05.
# The EGFR polymorphisms (rs2293348, rs4947492, rs11977388, rs2227983, and rs884225), ABCG2 (rs2231142 and rs2622604), ABCB1 (rs1128503, rs1045642, and rs2032582), and POR (rs17685 and rs1057868) were analyzed using Taqman® probe-based assays (Applied Biosystems, CA, USA). The probes (FAM/VIC-fluorescent) and primers for these polymorphisms were purchased from Applied Biosystems (TaqMan® SNP Genotyping Assay ID: C _ 144945_20, C _ 27876021_10, C _ 321871_10, C _ 16170352_20, and C _ 9501579_10 for EGFR polymorphisms; C _ 15854163_70 and C _ 9510352_10 for ABCG2 polymorphisms; C _ 7586662_10, C _ 7586657_20, C_11711720D_40, and C_11711720C_30 for ABCB1 polymorphisms; and C _ 8890133_30 and C _ 8890131_30 for POR polymorphisms). The real-time PCR reaction mix included 4.5 ng of DNA template diluted in 4.5 µL DNase‑Free distilled water, 5 µL TaqMan® Universal Master Mix II with UNG (Uracil-N-Glycosylase), and 0.5 µL TaqMan® SNP Genotyping Assay mix, including the primers and probes, in a total volume of 10 µL. The reactions were performed under the following conditions: UNG incubation at 50 °C for 2 min and polymerase activation at 95 °C for 10 min, followed by 50 cycles of 95 °C for 15 s and 60 °C for 60 s.
# ABCG2 polymorphism (rs2231137) was studied using the CycleavePCR® assay (TaKaRa Bio Inc., Kusatsu, Shiga, Japan). The primers and probes for ABCG2 rs2231137 were designed using the CycleavePCR Assay Designer (SNPs, TaKaRa Bio Inc.): forward 5′- […]-3′; reverse 5′-[…]-3′; FAM-labeled probe 5′-(Eclipse)[…][G]TG(FAM)-3′; and HEX-labeled probe 5′-(Eclipse)TATCCCA[A]TGT(HEX)-3′. The real-time PCR reaction mix per reaction included 4 ng of DNA template diluted in 10.5 μL DNase‑Free distilled water, 12.5 μL CycleavePCR Reaction Mix, 0.5 μL each of forward and reverse primers, and 1 μL each of FAM/HEX-labeled probes in a total volume of 26 μL. The reactions were performed under the following conditions: initial denaturation at 95 °C for 10 s, followed by 50 cycles at 95 °C for 5 s, 55 °C for 10 s, and 72 °C for 20 s.
# After real-time PCR, the result of the allelic discrimination was plotted by reading the generated fluorescence using CFX Manager Software version 3.1 (Bio-Rad Laboratories). For quality control, all the polymorphisms were genotyped more than twice.
# [5] = cited from earlier work
# clinical [6] = settings: human, in vivo; remark: listed apart in the source
# [7] = Osimertinib AUC0-24 <4938 ng/mL*h, n = 29, any grade
# [8] = Osimertinib AUC0-24 <4938 ng/mL*h, n = 29, grade ≥2
# [9] = Osimertinib AUC0-24 ≥4938 ng/mL*h, n = 22, any grade
# [10] = Osimertinib AUC0-24 ≥4938 ng/mL*h, n = 22, grade ≥2
smiles,measurement,setting,value
C=CC(=O)Nc1cc(Nc2nccc(-c3c[nH]c4ccccc34)n2)c(OC)cc1N(C)CCN(C)C [AZ5104],"Clearance CL/F (θ1, θ4, θ6)",clinical [1],44.41 L/h
same,Coefficient of variation for clearance (CL/F),clinical [1],35%
same,"Inter-occasion variance of clearance (ω^2 CL,IOV)",clinical [1],0.034
same,Potency against wild-type EGFR compared with the parent compound,wild-type EGFR,15 fold
same,Half-life,[2],52.6 h
same,Fraction of metabolite conversion from the parent,[2],25%
C=CC(=O)Nc1cc(Nc2nccc(-c3cn(C)c4ccccc34)n2)c(OC)cc1N(C)CCNC [AZ7550],"AUC0–24 at steady state, median (IQR)",clinical [1],367 (275–516) ng/mL*h
same,"Clearance CL/F (θ1, θ4, θ6)",clinical [1],46.2 L/h
same,Coefficient of variation for clearance (CL/F),clinical [1],27%
same,Association between AUC0–24 and grade ≥ 2 anorexia,"human, in vivo",significant association
same,Association between AUC0–24 and grade ≥ 2 increased creatinine,"human, in vivo",significant association
same,Association between AUC0–24 and grade ≥ 2 paronychia,"human, in vivo",significant association
same,Sensitivity of AUC0–24 cut-off for grade ≥ 2 AEs,"human, in vivo",49%
same,Specificity of AUC0–24 cut-off for grade ≥ 2 AEs,"human, in vivo",90%
same,Area under the ROC curve for predicting grade ≥ 2 AEs using AUC0–24,in vivo,0.651
same,Cut-off AUC0–24 to predict grade ≥ 2 AEs,in vivo,462 ng·h/mL
same,Circulating exposure of active metabolite relative to the parent compound,[2],10%
same,Half-life,[2],72.7 h
same,Fraction of metabolite conversion from the parent,[2],25%
C=CC(=O)Nc1cc(Nc2nccc(-c3cn(C)c4ccccc34)n2)c(OC)cc1N(C)CCN(C)C [osimertinib],"Clearance CL/F (θ1, θ4, θ6)",clinical [1],17.37 L/h
same,Coefficient of variation for clearance (CL/F),clinical [1],30%
same,"Volume of distribution V/F (θ2, θ5, θ7)",clinical [1],1386 L
same,Vd/F,"clinical [1]; Volume of distribution V/F (θ2, θ5, θ7)",1270 L
same,Association of EGFR-TKI treatment line with severe AEs,[3],higher frequency of severe AEs in patients receiving therapy as first-line treatment
same,Severe liver dysfunction within the observation period,[3],No patient
same,Patients who experienced severe AEs (grade 3 or leading to dose discontinuation),[3]; 3 months,Approximately 25%
same,Patients with grade ≥ 2 skin disorders (most prevalent grade ≥ 2 AE),[3]; 3 months,63%
same,Patients with interstitial lung disease leading to treatment discontinuation,[3]; 3 months,2.0%
same,Any grade ≥ 2 AEs in patients with ABCG2 rs2231137 G/A or A/A genotypes,[4],higher frequency
same,Association of ABCB1 rs1128503 C > T (C/T and T/T genotypes) with any grade ≥ 2 AEs,[4],significant association
same,Association of ABCB1 rs2032582 G > T/A (A/T and G/T genotypes) with any grade ≥ 2 skin disorders,[4],associated
same,Association of ABCB1 rs2032582 G > T/A (A/T and G/T genotypes) with grade ≥ 2 lymphocyte count decrease,[4],associated
same,Association of EGFR rs2293348 C > T (C/T genotype) with any severe AEs,[4],associated with any severe AEs
same,Association of EGFR rs2293348 C > T (C/T genotype) with grade ≥ 1 or ≥ 2 anorexia,[4],significantly associated
same,Association of EGFR rs4947492 G > A (A/A genotype) with any severe AEs,[4],associated with any severe AEs
same,Association of polymorphisms in POR with any AEs or PK,[4],not significantly associated
same,Association between AUC0–24 and grade ≥ 2 increased creatinine,Mann–Whitney U test,significant association
same,"Anorexia, % of patients",[7],(10.3) %
same,"Anorexia, No. of patients",[7],3
same,"Any adverse events, % of patients",[7],(100.0) %
same,"Any adverse events, No. of patients",[7],29
same,"Creatinine increased, % of patients",[7],(44.8) %
same,"Creatinine increased, No. of patients",[7],13
same,"Diarrhea, % of patients",[7],(58.6) %
same,"Diarrhea, No. of patients",[7],17
same,"Interstitial lung disease, % of patients",[7],(0.0) %
same,"Interstitial lung disease, No. of patients",[7],0
same,"Paronychia, % of patients",[7],(37.9) %
same,"Paronychia, No. of patients",[7],11
same,"Anorexia, % of patients",[8],(6.90) %
same,"Anorexia, No. of patients",[8],2
same,"Any adverse events, % of patients",[8],(69.0) %
same,"Any adverse events, No. of patients",[8],20
same,"Creatinine increased, % of patients",[8],(0.0) %
same,"Creatinine increased, No. of patients",[8],0
same,"Diarrhea, % of patients",[8],(0.0) %
same,"Diarrhea, No. of patients",[8],0
same,"Interstitial lung disease, % of patients",[8],(0.0) %
same,"Interstitial lung disease, No. of patients",[8],0
same,"Paronychia, % of patients",[8],(27.6) %
same,"Paronychia, No. of patients",[8],8
same,"Anorexia, % of patients",[9],(18.2) %
same,"Anorexia, No. of patients",[9],4
same,"Any adverse events, % of patients",[9],(100.0) %
same,"Any adverse events, No. of patients",[9],22
same,"Creatinine increased, % of patients",[9],(50.0) %
same,"Creatinine increased, No. of patients",[9],11
same,"Diarrhea, % of patients",[9],(45.5) %
same,"Diarrhea, No. of patients",[9],10
same,"Interstitial lung disease, % of patients",[9],(4.5) %
same,"Interstitial lung disease, No. of patients",[9],1
same,"Paronychia, % of patients",[9],(54.5) %
same,"Paronychia, No. of patients",[9],12
same,"Anorexia, % of patients",[10],(13.6) %
same,"Anorexia, No. of patients",[10],3
same,"Any adverse events, % of patients",[10],(95.5) %
same,"Any adverse events, No. of patients",[10],21
same,"Creatinine increased, % of patients",[10],(18.2) %
same,"Creatinine increased, No. of patients",[10],4
same,"Diarrhea, % of patients",[10],(13.6) %
same,"Diarrhea, No. of patients",[10],3
same,"Interstitial lung disease, % of patients",[10],(4.5) %
same,"Interstitial lung disease, No. of patients",[10],1
same,"Paronychia, % of patients",[10],(27.3) %
same,"Paronychia, No. of patients",[10],6
same,Sensitivity of AUC0–24 cut-off for grade ≥ 2 AEs,ROC curve,51%
same,Specificity of AUC0–24 cut-off for grade ≥ 2 AEs,ROC curve,90%
same,Half-life,[2],59.7 h
same,Oral bioavailability,[2],69.8%
same,Patients experiencing grade ≥ 2 adverse events,[5],over 80%
same,Patients experiencing grade ≥ 3 adverse events,[5],> 30%
same,AUC(0-t),clinical [6],5530 ng·h/mL
